Measurements as given in article PMC3057119 (Bioorganic & medicinal chemistry letters, 2011).

Tested on: p53-dependent luciferase reporter in U2OS cells
Experiment: p53-dependent luciferase reporter activation
Assay type: cell-based
Conditions: U2OS cells stably expressing p53-dependent luciferase reporter, 5 μM

`COc1ccc(C2=N[C@@H](c3ccc(Cl)cc3)[C@@H](c3ccc(Cl)cc3)N2C(=O)N2CCNC(=O)C2)c(OC(C)C)c1` [Nutlin-3, nutlin-3] was tested, and the “increase in luciferase activation” value was 4 fold.
